Measured values reported in paper doi:10.1101/2020.08.26.267799v1 (biorxiv, 2020).

Target: Human insulin (HI) (Homo sapiens, UniProt P01308)
Assay: ITC, insulin titrated into CBBG, one-site model
Assay type: binding

Human insulin (HI), sequence (P01308 25-54): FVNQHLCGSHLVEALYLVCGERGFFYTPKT
Human insulin (HI), sequence (P01308 90-110): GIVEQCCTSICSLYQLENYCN

Q: For CCOc1ccc(Nc2ccc(/C(=C3C=C/C(=[N+](/CC)Cc4cccc(S(=O)(=O)[O-])c4)C=C/3C)c3ccc(N(CC)Cc4cccc(S(=O)(=O)O)c4)cc3C)cc2)cc1 [Coomassie Brilliant Blue G-250], which Kd is on record?
A: Its Kd is 12.5 µM.
